Where no end group is shown, it is not given here.

The subject of assay [1] is alveolar type II epithelial cells (T2 cells). Briefly: Binding strength (affinity) of immobilized LN peptides to T2 cells relative to immobilized FIB-1 (mixed immobilization, free FIB-1 competition). It is filed as cell-based. More on the design: key to Binding strength to T2 cells, Comprehensive evaluation: AA: extremely strongly binding/adhering; A: strongly binding/adhering; B: intermediately binding/adhering (as the same degree as FIB-1 peptide); C: more weakly binding/adhering than FIB-1 peptide. The method, boiled down:
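MMAC-coated wells coated with FIB-1 (0.25 mg/ml) mixed with LN peptide (e.g. AG73) at varied ratios; free FIB-1 competition. T2 cells cultured serum-free 1 day; adhesion expressed relative to immobilized FIB-1 (100%). Relative binding strength derived from mixing ratio at transitional midpoint.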

The test system is the same in assay [2]. As to the kind of experiment: Inhibition by free cell adhesion peptides of T2 cell adhesion to coated cell adhesion proteins FN, Col I, LN, VN. It is filed as cell-based. As to conditions: free peptide 0.25 mg/ml; serum-free, 1 day.
The test system is the same in assay [3]. As to conditions: known, usual requirement; cited from earlier work.
Assay [4] has the same test system. Briefly: Time course of cell adhesion/spreading of T2 cells on immobilized cell adhesion peptide substrates. The format is cell-based. Particulars: 24-hour culture. As for the experimental part:
Culture was conducted by using the cell adhesion peptides immobilized on a well and T2 cells, for 1-24 hours according to the method in Example 8.
As cell adhesion peptides, AG73 was used in B, E and M, FIB-1 was used in C, L and O, A3G72 was used in F, A4G82 was used in G and N, A5G71 was used in H, A5G77 was used in I, hA3G75 was used in J, and hA3G83 was used in K; FN was used as a standard substance in A and D.

Assay [5] has the same test system. As to the kind of experiment: Inhibition of T2 cell adhesion by free peptide different from the immobilized peptide substrate. It is filed as cell-based. The method, boiled down:
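T2 cells cultured on immobilised peptide substrate, with a free peptide differing from the immobilised one added to the medium. Adhesion inhibition read as competition for syndecan binding.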

Assay [6] shares this test system. As to the kind of experiment: Inhibition of T2 cell adhesion to immobilized cell adhesion peptide substrates by heparin treatment. The format is cell-based. As to conditions: 24-hour culture. As for the experimental part: 100 μg/ml of heparin solution was poured into a well prepared according to the method in Example 6, wherein the cell adhesion peptides were immobilized, and the incubation was conducted for 2 hours. The heparin solution was removed after heparin bound to the immobilized cell adhesion peptides, and T2 cell suspension was seeded on the well.
It is theoretically shown that after the cell adhesion peptides first bind to heparin and are covered with heparin, the cell adhesion receptors having heparin-like sugar chain (heparan sulfate) present on the cell surface, in other words, syndecan, a protein that belongs to heparan sulfate proteoglycan, cannot bind to the cell adhesion peptides by using the sugar chain part of the heparan sulfate, thereby the cell adhesion is inhibited.

Assay [7] shares this test system. As to the kind of experiment: Static and forced stretching culture of T2 cells on MMAC-coated silicone wells with immobilized proteins or peptides. The format is cell-based. The procedure: A silicone well coated with MMAC was obtained by pouring 0.5 ml of ethanol solution of 50 μg/ml of MMAC (ISP, International Specialty Products, USA) into a silicone well with a groove of 20 mm×20 mm×10 mm, absorbing excess solution, and conducting air-drying.
Into the silicone wells coated by the method described in Example 1, 10 μg/ml of cell adhesion protein solution of fibronectin (FN), laminin-1 (LN), dissolved in 0.1 M triethanolamine buffer solution of pH 8.8, or 0.25 mg/ml of cell adhesion peptide solution of FIB-1, AG73 was poured respectively, and the reaction was conducted for at least several hours at 37° C. to bind and immobilize these proteins or peptides having cell adhesion activity (see Example 6 described later for particulars of immobilization). Subsequently, alveolar type II epithelial cell (T2 cells) suspension was poured, 5×10^4/cm^2 per unit area, and the culture was started in a CO2 culture apparatus.
T2 cells, 2×10^5/cm^2 per unit area, were seeded on the silicone well wherein the cell adhesion proteins or peptides were immobilized, which had been prepared in an almost same manner as that of Example 2, and static culture was conducted for 1 day. After confirming that the seeded cells confluently spread all over the culture face, horizontal cell stretching was forcibly started at the stretching degree of twenty five percents and at the frequency of 15 times per minute, by using cell culture stretching apparatus (Scholar Tec), and the culture was continued one more day. After the culture was finished, photographs of cell adhesion state were taken with a phase contrast microscope (FIG. 2, top 4 rows).
T2 cells, 5×10^4/cm^2 per unit area, were seeded on the silicone well wherein the cell adhesion proteins or peptides were immobilized, which had been prepared in an almost same manner as that of Example 2, and static culture was conducted for 3 days. T2 cells grew in a manner similar to that shown in FIG. 1, 3d (results are not shown because they are overlapping). Then, the cells were subjected to the same stimuli of forced stretching as in Example 1, and the culture was continued one more day. After the culture was finished, photographs of cell adhesion state were taken with a phase contrast microscope (FIG. 2, middle 4 rows) (FN, 3dC-1dS, LN, 3dC-1dS, FIB-1, 3dC-1dS, and AG-73, 3dC-1dS).
Forced stretching culture was conducted for 3 days in an almost same manner as stretching culture of Example 4. After the culture was finished, photographs of cell adhesion state were taken with a phase contrast microscope (FIG. 2, bottom 4 rows) (FN, 3dC-3dS, LN, 3dC-3dS, FIB-1, 3dC-3dS, and AG-73, 3dC-3dS).

Take YAVTGRGDSPAS [reference compound]: the “Binding strength to T2 cells, Comprehensive evaluation” value in assay [1] (classification relative to FIB-1 peptide) is on record as “B”. In addition, in assay [1] (inverse of mixing ratio at transitional midpoint, FIB-1 0.25 mg/ml, MMAC-coated well), the “Binding strength to T2 cells, Ratio to FIB-1” value is “(1)”. The “Inhibition of adhesion of T2 cells to FN, Col I, LN and VN by free peptide” value in assay [2] is reported as “does not exhibit inhibitory effect”. Further, the “Concentration of free FIB-1 peptide required to inhibit adhesion to FN” value in assay [3] was no less than 1 mg/mL. In addition, the “Cell adhesion/spreading on immobilized peptide” value in assay [4] is “almost all cells had finished spreading”. Moreover, the “Inhibition by free peptide of T2 cell adhesion to immobilized AG73” value in assay [5] (AG73 (etc.) immobilized) was “no inhibition occurred”. Also, the “Inhibition by free peptide of T2 cell adhesion to immobilized AG73 and A4G82 peptides” value in assay [5] (AG73 and A4G82 immobilized) is reported as “could not inhibit”. The “Inhibition by free peptide of T2 cell adhesion to immobilized AG81.2 and AG73T” value in assay [5] (AG81.2 and AG73T immobilized) is recorded as “inhibited the adhesion”. Also, the “Inhibition by free peptide of T2 cell adhesion to immobilized FIB-1” value in assay [5] (FIB-1 immobilized) is “competitively inhibited”. In addition, the “Inhibition of cell adhesion to immobilized peptide by heparin treatment” value in assay [6] (100 μg/ml heparin 2 hours) is “no inhibition”. Further, in assay [6] (immobilized peptide treated with 100 μg/ml heparin 2 hours), the “Inhibition degree of cell adhesion, Heparin” value is on record as “No”. In addition, in assay [7] (1 day static, 1 day stretching (1dC-1dS), 25 percent, 15 times per minute), the “Reorientation of T2 cells under forced stretching” value is “spread in an elongated shape to a direction perpendicular to the direction of forced stretching”. The “Change of type II epithelial cells into a shape like type I epithelial cells” value in assay [7] (3 days static, 3 days stretching (3dC-3dS)) is reported as “less observed”.

Values taken from US8304238B2, “Cell culture medium and immobilized preparation of cell adhesion protein or peptide” (Nat'l Institute for Environmental Studies, priority 2003, dated 2012).
